Experimental data taken from US4613601A, “(1-benzodioxin-6-ylmethyl)-4-substituted piperazines having antipsychotic activity” (Adir, S.A.R.L., priority 1982, dated 1986).
Values belong to the compound of their own block, whether it stands above or below them.

Key:
[1] = test system: hypersensitive post-synaptic dopaminergic receptors; assay: rotations in rats with unilateral lesions of the nigro-neostriatal tract (Ungerstedt); format: in vivo, rat
Experimental: The central dopaminergic activity for the compounds of the present invention was determined, especially by measuring the rotations of the rat according to the method of Ungerstedt U., European Journal of Pharmacology, 5, (1968) 107-110. For the compounds of the present invention, administered at a dose of 25 mg/kg subcutaneously, up to 380 rotations were obtained in 45 minutes.
Experiments have also been carried out on rats with unilateral lesions of the nigro-neostriatal tract.
These lesions are produced by local micro-injection of 6-hydroxy dopamine into the black substance of the rat, according to U. Ungerstedt; Europ. J. Pharmacol. 5, 1968, 107-110 and Advances in Neurology, vol. 3, Raven Press., New York (1973).
This treatment leads to a degeneration of the dopaminergic neurons coming from the nigra-substantia, going towards the neostriatum.
Furthermore, following this denervation, the post-synaptic receptors situated above the pithed tract, i.e., above the synapse which leads to the pithed neuron, become hypersensitive to the pharmacological dopaminergic agents administered. This direct activation of hypersensitive dopaminergic receptors then produces the supervention of a motor rotation behaviour in treated rats.
When the left nigro-striatal tract is destroyed, the rotations occur towards the right, on the opposite side to the lesion. The experimental groups each contain from 5 to 6 animals.

[2] = test system: dopaminergic inhibitory auto-receptors; assay: motor depressant effects (hypokinesia) in mice; format: in vivo; settings: all doses studied from 20 to 160 mg/kg I.P.
From the text: The motor depressant effects of the compound of Example 1 have been studied in mice.

[3] = test system: dopaminergic inhibitory auto-receptors; assay: electro-encephalogram / sleep in rats; format: in vivo
[4] = test system: dopaminergic post-synaptic receptors of the striatum; assay: stereotyped movements in rats (Quinton and Halliwell scale); format: in vivo; settings: for total stereotypy score in 3 hours: 6 observations; for total stereotypy score in 3 hours / total stereotypy score: groups of 8 rats; for stimulating activity on the dopaminergic post-synaptic receptors of the striatum: rats, from stereotypy scores
Experimental: The research for stereotyped movements, proof of the existence of a direct post-synaptic dopaminergic stimulating activity, has been carried out in rats using the scale described by R. M. QUINTON and H. HALLIWELL, Nature, 200, 1963, 178-179. The experiment lasts 3 hours, the animals are observed every 30 minutes. The groups are made up of 8 rats each, and the results are the total scores of the accumulated individual scores of the stereotypies observed during the experiment (6 observations).

[5] = test system: d-amphetamine-induced dopaminergic hyperactivity; assay: inhibition of d-amphetamine-induced motor phenomena in mice (activograph); format: in vivo
Experimental: the administration of d-amphetamine, at a dose of 1 to 3 mg/kg I.P. in mice, releases the supervention of motor phenomena registered using an activograph.

[6] = test system: conditioned avoidance response; assay: conditioned avoidance response inhibition in the rat (shuttle box avoidance); format: in vivo, male WISTAR rats
Experimental: The method used is based on the works of COURVOISIER et al., Arch. Int. Pharmacodyn. 92, 305-361, (1953), and of JANSSEN et al., Arzneim. Forsch. 15, 104-117, (1965).
The experiments are carried out on groups of 10 to 20 male WISTAR rats weighing between 300 g and 400 g. Each animal is submitted to two day-sessions per week, one after treatment carried out on the substance studied at a given dose, 30 minutes before the session, the other following the administration of a solute of NaCl (0.154M)--I.P. route in both cases. The compound of Example 1 has been administered in solution in sterile bi-distilled water, at doses of 6.25, 12.5, 25, 50 and 75 mg/kg. I.P.
Piribedil chosen as reference product has been administered at the same doses and by the same route. This method is used to show the anti-psychotic activity of a substance. It is known that anti-psychotic agents inhibit the conditioned shunning response, without modifying the escape response following an electric shock (Unconditioned response).

[7] = test system: pre-synaptic dopaminergic receptors; assay: hypokinesia in the normal animal, mice or rats; format: in vivo

stimulating activity on the dopaminergic post-synaptic receptors of the striatum [4]: no important stimulating activity
SMILES: C1=COc2cc(CN3CCN(c4ncccn4)CC3)ccc2O1 [Example 1, 1-(benzodioxin-6-ylmethyl)-4-(pyrimidin-2-yl)piperazine]
average number of rotations in 45 minutes ([1]; 12.5 mg/kg S.C.): 182 rotations
average number of rotations in 45 minutes ([1]; 25 mg/kg S.C.): 380 rotations
average number of rotations in 45 minutes ([1]; 50 mg/kg P.O.): 543 rotations
rotations in the unilaterally pithed rat ([1]; right side, opposite side to the lesion): numerous rotations
hypokinesia in mice [2]: provokes in mice a hypokinesia at all the doses studied
central effects observed in the electro-encephalogram [3]: central depressant effects
total sleep (slow sleep and paradoxal sleep), words ([3]; 30 mg/kg I.P.): increase in total sleep
increase in total sleep ([3]; 30 mg/kg I.P., second hour following administration): 100%
stereotyped movements ([4]; 80 mg/kg I.P. or S.C.): very few stereotyped movements
total stereotypy score in 3 hours ([4]; 80 mg/kg I.P.): 52
total stereotypy score in 3 hours ([4]; 80 mg/kg S.C.): 49
stereotypy in normal rats ([4]; normal rats): practically no sterotypy
antagonism of the effects of d-amphetamine ([5]; 20 mg/kg compound against 1 mg/kg I.P. d-amphetamine): antagonise
antagonism of the effects of d-amphetamine ([5]; 40 mg/kg compound against 3 mg/kg I.P. d-amphetamine): antagonise
inhibition of the motor phenomena due to d-amphetamine ([5]; joint administration with d-amphetamine 1 to 3 mg/kg I.P.): inhibition of the motor phenomena due to the amphetamine
Crossings, % over 20 ([6]; 6.25 mg/kg I.P.): -3%
Escape response, % in relation to control animals ([6]; 6.25 mg/kg I.P.): -14%
Escape response, % over 20 ([6]; 6.25 mg/kg I.P.): 1.5%
Escape response, Number over 20 ([6]; 6.25 mg/kg I.P.): 0.30
Shunning response, % in relation to control animals ([6]; 6.25 mg/kg I.P.): +0.25%
Shunning response, % over 20 ([6]; 6.25 mg/kg I.P.): 98.5%
Shunning response, Number over 20 ([6]; 6.25 mg/kg I.P.): 19.7
Crossings, Number over 20 ([6]; 6.25 mg/kg I.P., * = P < 0.05): 20.6
Crossings, % over 20 ([6]; 12.50 mg/kg I.P.): -15%
Escape response, % in relation to control animals ([6]; 12.50 mg/kg I.P.): +71%
Escape response, % over 20 ([6]; 12.50 mg/kg I.P.): 3%
Escape response, Number over 20 ([6]; 12.50 mg/kg I.P.): 0.6
Shunning response, % in relation to control animals ([6]; 12.50 mg/kg I.P.): -1%
Shunning response, % over 20 ([6]; 12.50 mg/kg I.P.): 97%
Shunning response, Number over 20 ([6]; 12.50 mg/kg I.P.): 19.4
Crossings, Number over 20 ([6]; 12.50 mg/kg I.P., * = P < 0.05): 18.0
Crossings, % over 20 ([6]; 25 mg/kg I.P.): -9%
Escape response, % in relation to control animals ([6]; 25 mg/kg I.P.): +71%
Escape response, % over 20 ([6]; 25 mg/kg I.P.): 3%
Escape response, Number over 20 ([6]; 25 mg/kg I.P.): 0.6
Shunning response, % in relation to control animals ([6]; 25 mg/kg I.P.): -1%
Shunning response, % over 20 ([6]; 25 mg/kg I.P.): 97%
Shunning response, Number over 20 ([6]; 25 mg/kg I.P.): 19.4
Crossings, Number over 20 ([6]; 25 mg/kg I.P., * = P < 0.05): 19.2
Crossings, % change in relation to control animals ([6]; 50 mg/kg I.P.): +8%
Escape response, % in relation to control animals ([6]; 50 mg/kg I.P.): +814%
Escape response, % over 20 ([6]; 50 mg/kg I.P.): 16%
Shunning response, % in relation to control animals ([6]; 50 mg/kg I.P.): -15%
Shunning response, % over 20 ([6]; 50 mg/kg I.P.): 84%
diminution of the number of shunning responses ([6]; 50 mg/kg I.P.): 15%
increase of the escape responses ([6]; 50 mg/kg I.P.): 800%
Crossings, Number over 20 ([6]; 50 mg/kg I.P., * = P < 0.05): 22.9
Escape response, Number over 20 ([6]; 50 mg/kg I.P., * = P < 0.05): 3.2
Shunning response, Number over 20 ([6]; 50 mg/kg I.P., * = P < 0.05): 16.8
Crossings, % change in relation to control animals ([6]; 75 mg/kg I.P.): +63%
Escape response, % in relation to control animals ([6]; 75 mg/kg I.P.): +533%
Escape response, % over 20 ([6]; 75 mg/kg I.P.): 9.5%
Shunning response, % in relation to control animals ([6]; 75 mg/kg I.P.): -8%
Shunning response, % over 20 ([6]; 75 mg/kg I.P.): 90.5%
diminution of the number of shunning responses ([6]; 75 mg/kg I.P.): 8%
increase of the escape responses ([6]; 75 mg/kg I.P.): 500%
increase of the number of spontaneous crossings ([6]; 75 mg/kg I.P.): 63%
mobility depressor, sedative, cataleptigenic effect ([6]; 75 mg/kg I.P.): neither a mobility depressor effect, nor sedative effect, nor cataleptigenic effect
Crossings, Number over 20 ([6]; 75 mg/kg I.P., * = P < 0.05): 25.4
Escape response, Number over 20 ([6]; 75 mg/kg I.P., * = P < 0.05): 1.9
Shunning response, Number over 20 ([6]; 75 mg/kg I.P., * = P < 0.05): 18.1
conditioned and unconditioned responses ([6]; I.P.): reduces the conditioned responses without diminishing the unconditioned escape responses
hypokinesia in the normal animal [7]: only provokes an hypokinesia

stimulating activity on the dopaminergic post-synaptic receptors of the striatum [4]: stimulates these receptors
SMILES: c1cnc(N2CCN(Cc3ccc4c(c3)OCO4)CC2)nc1 [Piribedil, reference compound]
average number of rotations in 45 minutes ([1]; 50 mg/kg P.O.): 256 rotations
reduction of total sleep ([3]; E.E.G., same dose (30 mg/kg I.P.)): 50%
total stereotypy score ([4]; 20 mg/kg I.P.): 145
total stereotypy score ([4]; 40 mg/kg I.P.): 246
Crossings, % change in relation to control animals ([6]; 6.25 mg/kg I.P.): +50%
Escape response, % in relation to control animals ([6]; 6.25 mg/kg I.P.): +50%
Escape response, % over 20 ([6]; 6.25 mg/kg I.P.): 3%
Escape response, Number over 20 ([6]; 6.25 mg/kg I.P.): 0.6
Shunning response, % in relation to control animals ([6]; 6.25 mg/kg I.P.): -1%
Shunning response, % over 20 ([6]; 6.25 mg/kg I.P.): 97%
Shunning response, Number over 20 ([6]; 6.25 mg/kg I.P.): 19.4
Crossings, Number over 20 ([6]; 6.25 mg/kg I.P., * = P < 0.05): 29.5
Crossings, % change in relation to control animals ([6]; 12.50 mg/kg I.P.): +47%
Escape response, % in relation to control animals ([6]; 12.50 mg/kg I.P.): 0%
Escape response, % over 20 ([6]; 12.50 mg/kg I.P.): 2%
Escape response, Number over 20 ([6]; 12.50 mg/kg I.P.): 0.4
Shunning response, % in relation to control animals ([6]; 12.50 mg/kg I.P.): 0%
Shunning response, % over 20 ([6]; 12.50 mg/kg I.P.): 98%
Shunning response, Number over 20 ([6]; 12.50 mg/kg I.P.): 19.1
Crossings, Number over 20 ([6]; 12.50 mg/kg I.P., * = P < 0.05): 28.9
Crossings, % change in relation to control animals ([6]; 25 mg/kg I.P.): +148%
Escape response, % in relation to control animals ([6]; 25 mg/kg I.P.): +149%
Escape response, % over 20 ([6]; 25 mg/kg I.P.): 5%
Escape response, Number over 20 ([6]; 25 mg/kg I.P.): 1
Shunning response, % in relation to control animals ([6]; 25 mg/kg I.P.): -3%
Shunning response, % over 20 ([6]; 25 mg/kg I.P.): 95%
Shunning response, Number over 20 ([6]; 25 mg/kg I.P.): 19
Crossings, Number over 20 ([6]; 25 mg/kg I.P., * = P < 0.05): 48.9
Crossings, % change in relation to control animals ([6]; 50 mg/kg I.P.): +118%
Escape response, % in relation to control animals ([6]; 50 mg/kg I.P.): +50%
Escape response, % over 20 ([6]; 50 mg/kg I.P.): 3%
Shunning response, % in relation to control animals ([6]; 50 mg/kg I.P.): -1%
Shunning response, % over 20 ([6]; 50 mg/kg I.P.): 97%
Crossings, Number over 20 ([6]; 50 mg/kg I.P., * = P < 0.05): 42.9
Escape response, Number over 20 ([6]; 50 mg/kg I.P., * = P < 0.05): 0.6
Shunning response, Number over 20 ([6]; 50 mg/kg I.P., * = P < 0.05): 19.4
Crossings, % change in relation to control animals ([6]; 75 mg/kg I.P.): +115%
Escape response, % in relation to control animals ([6]; 75 mg/kg I.P.): +633%
Escape response, % over 20 ([6]; 75 mg/kg I.P.): 11%
Shunning response, % in relation to control animals ([6]; 75 mg/kg I.P.): -10%
Shunning response, % over 20 ([6]; 75 mg/kg I.P.): 89%
Crossings, Number over 20 ([6]; 75 mg/kg I.P., * = P < 0.05): 33.5
Escape response, Number over 20 ([6]; 75 mg/kg I.P., * = P < 0.05): 2.2
Shunning response, Number over 20 ([6]; 75 mg/kg I.P., * = P < 0.05): 17.8
effect on the shunning responses ([6]; 6.25 to 75 mg/kg I.P.): no agonistic effect on the shunning responses
